According to PubChem BioAssay (NCI):
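1) Cells in 96-well plates. 2) Compound, 48 h, 5 concentrations. 3) Linear interpolation between surrounding doses. 4) Unreached endpoint = highest concentration. Abbreviation: GI50, concentration required for 50% inhibition of growth. TGI is the concentration that stops growth completely.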

How the values were obtained:
Experiment in all cases: inhibition of tumour cell growth, NCI panel, 48 h
OVCAR-8 ovarian = test system: OVCAR-8 ovarian
SK-MEL-2 melanoma = test system: SK-MEL-2 melanoma
KM12 colon = test system: KM12 colon
UACC-257 melanoma = test system: UACC-257 melanoma
MOLT-4 leukemia = test system: MOLT-4 leukemia
NCI-H460 lung = test system: NCI-H460 lung
COLO 205 colon = test system: COLO 205 colon
HT29 colon = test system: HT29 colon
UACC-62 melanoma = test system: UACC-62 melanoma
SNB-75 CNS = test system: SNB-75 CNS
U251 CNS = test system: U251 CNS
HCT-116 colon = test system: HCT-116 colon
SK-MEL-28 melanoma = test system: SK-MEL-28 melanoma
IGROV1 ovarian = test system: IGROV1 ovarian
SF-268 CNS = test system: SF-268 CNS
TK-10 renal = test system: TK-10 renal
NCI-H226 lung = test system: NCI-H226 lung
OVCAR-4 ovarian = test system: OVCAR-4 ovarian
UO-31 renal = test system: UO-31 renal
RPMI-8226 leukemia = test system: RPMI-8226 leukemia
MALME-3M melanoma = test system: MALME-3M melanoma
NCI-H23 lung = test system: NCI-H23 lung
KM20L2 colon = test system: KM20L2 colon
M14 melanoma = test system: M14 melanoma
SN12C renal = test system: SN12C renal
HCT-15 colon = test system: HCT-15 colon
CCRF-CEM leukemia = test system: CCRF-CEM leukemia
DLD-1 colon = test system: DLD-1 colon
OVCAR-3 ovarian = test system: OVCAR-3 ovarian
SF-295 CNS = test system: SF-295 CNS
A549 NSCLC = test system: A549 NSCLC
OVCAR-5 ovarian = test system: OVCAR-5 ovarian
HCC-2998 colon = test system: HCC-2998 colon
EKVX NSCLC = test system: EKVX NSCLC
DMS 114 small cell lung = test system: DMS 114 small cell lung
DMS 273 small cell lung = test system: DMS 273 small cell lung
SNB-78 CNS = test system: SNB-78 CNS
HL-60(TB) leukemia = test system: HL-60(TB) leukemia
SW-620 colon = test system: SW-620 colon
SNB-19 CNS = test system: SNB-19 CNS
LXFL 529 NSCLC = test system: LXFL 529 NSCLC
ACHN renal = test system: ACHN renal
A498 renal = test system: A498 renal
K-562 leukemia = test system: K-562 leukemia
CAKI-1 renal = test system: CAKI-1 renal
NCI-H522 lung = test system: NCI-H522 lung
SK-OV-3 ovarian = test system: SK-OV-3 ovarian
786-0 renal = test system: 786-0 renal
SK-MEL-5 melanoma = test system: SK-MEL-5 melanoma
M19-MEL melanoma = test system: M19-MEL melanoma
HOP-62 NSCLC = test system: HOP-62 NSCLC
LOX IMVI melanoma = test system: LOX IMVI melanoma
SR leukemia = test system: SR leukemia
HOP-18 NSCLC = test system: HOP-18 NSCLC
SF-539 CNS = test system: SF-539 CNS
HOP-92 NSCLC = test system: HOP-92 NSCLC
RXF 393 renal = test system: RXF 393 renal

## CNc1nc(N)cc(=O)[nH]1
OVCAR-8 ovarian
  TGI: > 100 µM
SK-MEL-2 melanoma
  TGI: > 100 µM
KM12 colon
  TGI: > 100 µM
UACC-257 melanoma
  TGI: > 100 µM
MOLT-4 leukemia
  TGI: > 100 µM
NCI-H460 lung
  TGI: > 100 µM
COLO 205 colon
  TGI: > 100 µM
HT29 colon
  TGI: > 100 µM
UACC-62 melanoma
  TGI: > 100 µM
SNB-75 CNS
  TGI: > 100 µM
U251 CNS
  TGI: > 100 µM
HCT-116 colon
  TGI: > 100 µM
SK-MEL-28 melanoma
  TGI: > 100 µM
IGROV1 ovarian
  TGI: > 100 µM
SF-268 CNS
  TGI: > 100 µM
TK-10 renal
  TGI: > 100 µM
NCI-H226 lung
  TGI: > 100 µM
OVCAR-4 ovarian
  TGI: > 100 µM
UO-31 renal
  TGI: > 100 µM
RPMI-8226 leukemia
  TGI: > 100 µM
MALME-3M melanoma
  TGI: > 100 µM
NCI-H23 lung
  TGI: > 100 µM
KM20L2 colon
  TGI: > 100 µM
M14 melanoma
  TGI: > 100 µM
SN12C renal
  TGI: > 100 µM
HCT-15 colon
  TGI: > 100 µM
CCRF-CEM leukemia
  TGI: > 100 µM
DLD-1 colon
  TGI: > 100 µM
OVCAR-3 ovarian
  TGI: > 100 µM
SF-295 CNS
  TGI: > 100 µM
A549 NSCLC
  TGI: > 100 µM
OVCAR-5 ovarian
  TGI: > 100 µM
HCC-2998 colon
  TGI: > 100 µM
EKVX NSCLC
  TGI: > 100 µM
DMS 114 small cell lung
  TGI: > 100 µM
DMS 273 small cell lung
  TGI: > 100 µM
SNB-78 CNS
  TGI: > 100 µM
HL-60(TB) leukemia
  TGI: > 100 µM
SW-620 colon
  TGI: > 100 µM
SNB-19 CNS
  TGI: > 100 µM
LXFL 529 NSCLC
  TGI: > 100 µM
ACHN renal
  TGI: > 100 µM
A498 renal
  TGI: > 100 µM
K-562 leukemia
  TGI: > 100 µM
CAKI-1 renal
  TGI: > 100 µM
NCI-H522 lung
  TGI: > 100 µM
SK-OV-3 ovarian
  TGI: > 100 µM
786-0 renal
  TGI: > 100 µM
SK-MEL-5 melanoma
  TGI: > 100 µM
M19-MEL melanoma
  TGI: > 100 µM
HOP-62 NSCLC
  TGI: > 100 µM
LOX IMVI melanoma
  TGI: > 100 µM

## CC(C)CC(=O)[O-].CC(C)CC(=O)[O-].N.N.N.N.[Co+3].[O-][Cl+3]([O-])([O-])O.[O-][Cl+3]([O-])([O-])[O-]
OVCAR-8 ovarian
  GI50: > 100 µM
  TGI: > 100 µM
SR leukemia
  GI50: > 100 µM
  TGI: > 100 µM
SK-MEL-2 melanoma
  GI50: > 100 µM
  TGI: > 100 µM
HOP-18 NSCLC
  GI50: > 100 µM
  TGI: > 100 µM
KM12 colon
  GI50: > 100 µM
  TGI: > 100 µM
UACC-257 melanoma
  GI50: > 100 µM
  TGI: > 100 µM
MOLT-4 leukemia
  GI50: > 100 µM
  TGI: > 100 µM
COLO 205 colon
  GI50: > 100 µM
  TGI: > 100 µM
UACC-62 melanoma
  GI50: > 100 µM
  TGI: > 100 µM
SNB-75 CNS
  GI50: > 100 µM
  TGI: > 100 µM
SK-MEL-28 melanoma
  GI50: > 100 µM
  TGI: > 100 µM
IGROV1 ovarian
  GI50: > 100 µM
  TGI: > 100 µM
SF-268 CNS
  GI50: > 100 µM
  TGI: > 100 µM
TK-10 renal
  GI50: > 100 µM
  TGI: > 100 µM
NCI-H226 lung
  GI50: > 100 µM
  TGI: > 100 µM
UO-31 renal
  GI50: > 100 µM
  TGI: > 100 µM
RPMI-8226 leukemia
  GI50: > 100 µM
  TGI: > 100 µM
MALME-3M melanoma
  GI50: > 100 µM
  TGI: > 100 µM
NCI-H23 lung
  GI50: > 100 µM
  TGI: > 100 µM
M14 melanoma
  GI50: > 100 µM
  TGI: > 100 µM
SN12C renal
  GI50: > 100 µM
  TGI: > 100 µM
HCT-15 colon
  GI50: > 100 µM
  TGI: > 100 µM
SF-539 CNS
  GI50: > 100 µM
  TGI: > 100 µM
CCRF-CEM leukemia
  GI50: > 100 µM
  TGI: > 100 µM
DLD-1 colon
  GI50: > 100 µM
  TGI: > 100 µM
SF-295 CNS
  GI50: > 100 µM
  TGI: > 100 µM
A549 NSCLC
  GI50: > 100 µM
  TGI: > 100 µM
OVCAR-5 ovarian
  GI50: > 100 µM
  TGI: > 100 µM
HCC-2998 colon
  GI50: > 100 µM
  TGI: > 100 µM
EKVX NSCLC
  GI50: > 100 µM
  TGI: > 100 µM
SNB-78 CNS
  GI50: > 100 µM
  TGI: > 100 µM
HL-60(TB) leukemia
  GI50: > 100 µM
  TGI: > 100 µM
SW-620 colon
  GI50: > 100 µM
  TGI: > 100 µM
HOP-92 NSCLC
  GI50: > 100 µM
  TGI: > 100 µM
SNB-19 CNS
  GI50: > 100 µM
  TGI: > 100 µM
LXFL 529 NSCLC
  GI50: > 100 µM
  TGI: > 100 µM
RXF 393 renal
  GI50: > 100 µM
  TGI: > 100 µM
ACHN renal
  GI50: > 100 µM
  TGI: > 100 µM
K-562 leukemia
  GI50: > 100 µM
  TGI: > 100 µM
SK-OV-3 ovarian
  GI50: > 100 µM
  TGI: > 100 µM
786-0 renal
  GI50: > 100 µM
  TGI: > 100 µM
LOX IMVI melanoma
  GI50: > 100 µM
  TGI: > 100 µM
